# Measurements reported in US11523997B2, “Method of providing celiprolol therapy to a patient” (Assistance Publique-Hôpitaux de Paris (AP-HP), priority 2017, dated 2022).
# What was measured:
# [1] = test system: patients with a phenotype of vEDS or molecularly proven vEDS; conditions: final 200 mg twice a day (BID); 5-year follow-up; 18-month up-titration; cited from earlier work
# [2] = test system: patients with molecularly confirmed vascular EDS; assay: Long-term cohort follow-up of vEDS patients treated with celiprolol: patient survival (Kaplan-Meier, Cox model); assay type: in vivo, human; set-up: Survival of patients at 1 year of follow-up / Survival of patients at 5 years of follow-up / Survival of patients at 10 years of follow-up / Overall patient survival (Kaplan-Meier) / Survival at end of follow-up in those treated with celiprolol / Survival according to type of variant: Group I / Survival according to type of variant: Group II / Survival according to type of variant: Group III: concentration or dose not given beside the values
# Procedure: (§1) All patients with clinically and molecularly diagnosed vEDS that were actively followed clinically in the French National Referral Centre for Rare Vascular Diseases (HEGP, AP-HP, Paris, France) between January 2000 and March 2017 were screened for participation. During the initial evaluation of the first affected family member seeking medical attention for symptoms related to vEDS (index case), familial medical history was recorded and investigation performed in the first-degree relatives whenever possible. A dedicated database for vEDS was created at our institution in 2011. All relevant clinical data of every vEDS patient followed by our centre was entered into this database retrospectively from the year 2000 until 2011, and prospectively thereafter until Mar. 15, 2017. The database contains all available medical history related to the pathology before the initial work-up and obtained during the follow-up either through systematic visits or those caused by a new clinical event. Thus, the occurrence of any acute arterial, gastrointestinal, pulmonary and other vEDS-related events was systematically recorded. In case of death during follow-up, the time and cause of death were entered into the database. This study was formally approved by the IDF ethics committee (IRB registration #00001072) and the database was held in compliance with French legislation on patient privacy.
# (§2) All vEDS patients benefited from standardized whole body arterial monitoring by Doppler Ultrasound (DUS) and CT angiogram and/or MRA. Such investigations were performed at baseline (initial assessment at molecular diagnosis) and was repeated every 12 to 15 months in asymptomatic patients. For arterial events that occurred before molecular diagnosis, location of arterial segments was retrieved from hospitalization and imaging reports or examinations, when available. In case of an acute arterial event, symptomatic arterial beds/segments were monitored by any necessary diagnostic and therapeutic means (CT-angiogram, DUS, angiography in case of embolization). […] For optimized management of arterial, gastrointestinal, and pulmonary emergencies, patients were given direct access to the medical team of our centre.
# (§3) Since the publication of the BBest trial in 2011, all included patients followed by our centre and not already treated with celiprolol were offered to switch to celiprolol. Patients who were not part of the trial and who were diagnosed during or since the termination of the BBest trial were treated with celiprolol starting at molecular diagnosis. Initial dosing of celiprolol was 100 mg once daily and increased by 100 mg/day every month over a 3-month period to reach the dose of 400 mg/day (200 mg twice daily) (celiprolol hydrochloride). In case of signs of intolerance (fatigue, dizziness) during up-titration or follow-up, the dose of celiprolol was reduced by 100 mg/day until the highest tolerated dose was reached. Dose adjustments were made whenever necessary throughout the patient's follow-up if intolerance was suspected. In accordance with the treatment protocol of the BBEST trial, patients were up-titrated to a maximum dose of 200 mg twice daily.
# Adherence to medication was verified by open interview of the patients at each follow-up visit. Low medication adherence was considered if patients admitted to not taking their medication regularly at any moment of their follow-up. Patients were considered intolerant to celiprolol in case of refusal to follow the prescription even at a minimum dose of 100 mg/day. Patients taking another beta-blocker were offered to switch to celiprolol but this change was not mandatory, especially if patients had been clinically silent until molecular diagnosis while under another betablocker. If an acute arterial event occurred, patients were once again offered to switch to celiprolol. […]
# [3] = test system: patients with molecularly confirmed vascular EDS; assay: Cohort follow-up: tolerance of celiprolol with 3-month up-titration; assay type: in vivo, human
# Procedure: as §3
# Adherence to medication was verified by open interview of the patients at each follow-up visit. Low medication adherence was considered if patients admitted to not taking their medication regularly at any moment of their follow-up. Patients were considered intolerant to celiprolol in case of refusal to follow the prescription even at a minimum dose of 100 mg/day. Patients taking another beta-blocker were offered to switch to celiprolol but this change was not mandatory, especially if patients had been clinically silent until molecular diagnosis while under another betablocker. If an acute arterial event occurred, patients were once again offered to switch to celiprolol. To reach significant numbers to allow comparative analysis, intolerant patients, patients not taking celiprolol, patients taking another betablocker and non-adherent patients were merged into one group further referred to as “not treated”.
# [4] = test system: patients with molecularly confirmed vascular EDS; assay: Cohort follow-up: incidence of acute arterial events and hospitalizations; assay type: in vivo, human
# Procedure: as §1, §2
# In order to assess arterial morbidity over a long timeline in patients with different follow-up periods, an empirical arterial score was designed for each subject. […]
# Quantitative data were expressed as number, median, first and third quartiles; qualitative data were expressed as number and percentage. […] Quantitative variables were compared with the Wilcoxon-Mann-Whitney or the Kruskal Wallis tests, as appropriate. […]
# [5] = Cox's model, stepwise method, n=132
# [6] = multivariate Cox's model, n=132 (Groups I and II)
# [7] = whole cohort, 90.3% on celiprolol by end of study
smiles,measurement,setting,value
"CCN(CC)C(=O)Nc1ccc(OCC(O)CNC(C)(C)C)c(C(C)=O)c1 (stereo not shown) [celiprolol, N′-(3-Acetyl-4-(3-((1,1-dimethylethyl)amino)-2-hydroxypropoxy)phenyl)-N, N-diethylurea]",reduction in morbidity and mortality,[1],35%
same,Observed reduction in mortality: dose dependence,[2]; 400 mg/day better than a smaller dose,dose-dependent
same,"Hazard ratio, celiprolol treatment Full dose/No",[2]; [5],0.060
same,"Hazard ratio, celiprolol treatment Half dose/No",[2]; [5],0.305
same,"Hazard ratio, treatment duration ≥6 years/<6 years",[2]; [5],0.058
same,Survival according to type of variant: Group I,"[2]; Group I (glycine missense), n=144 cohort",65.1%
same,Survival according to type of variant: Group II,"[2]; Group II (splice-site variants, insertions/deletions, duplications)",89.6%
same,Survival according to type of variant: Group III,[2]; Group III (haploinsufficiency),100%
same,Survival at end of follow-up in those treated with celiprolol,"[2]; Groups I and II (n=132), treated n=110",80.7%
same,Survival at end of follow-up according to daily dose: celiprolol 400 mg/day,"[2]; Groups I and II, 400 mg/day",85%
same,Survival at end of follow-up according to daily dose: celiprolol 100-300 mg/day,"[2]; Groups I and II, 100-300 mg/day",62.8%
same,"Hazard ratio, celiprolol treatment Full dose/No",[2]; [6],0.048
same,"Hazard ratio, celiprolol treatment Half dose/No",[2]; [6],0.303
same,"Hazard ratio, treatment duration ≥6 years/<6 years",[2]; [6],0.058
same,Survival of patients at 1 year of follow-up,"[2]; n=144, 1 year",98.6%
same,Survival of patients at 5 years of follow-up,"[2]; n=144, 5 years",92%
same,Survival of patients at 10 years of follow-up,"[2]; n=144, 10 years",82.7%
same,Overall patient survival (Kaplan-Meier),"[2]; n=144 vascular EDS patients, end of follow-up",71.6%
same,"Deceased patients with celiprolol treatment (Yes), %",[2]; of N=17 deceased patients,(52.9%)
same,"Alive patients with celiprolol treatment (Yes), %",[2]; of N=127 alive patients,(87.4%)
same,Survival of patients treated with celiprolol compared with others,[2]; overall conclusion,better survival than others
same,Celiprolol intolerance and side effects with about three-month up-titration,"[3]; full dose, up-titration of about three months",without significant increase
same,Patients requiring dose reduction due to fatigue and/or dizziness,"[3]; human, in vivo",3.47%
same,Patients who declared themselves intolerant to celiprolol or refused to take it in fear of intolerance,[3]; n=2 of 144,1.4%
same,"Odds ratio (OR), rate of hospitalizations for acute arterial event before and after 2011",[4]; before vs after systematic introduction of celiprolol (2011),1.72
same,Effect of celiprolol on mean age of occurrence of first and second new arterial event,[4]; in vivo,without identifiable effect
same,Cumulative incidence of a first new arterial event during follow-up,[4]; [7],56.8%
same,Cumulative incidence of a second new arterial event during follow-up,[4]; [7],29.8%
